Assay results from patent US20020103136A1, “Conjugates useful in the treatment of prostate cancer” (priority 1998, published 2002).
Read-outs that look alike come from different tables or passages of the source. Square brackets hold non-standard residues; d marks the D form. HCAP = (1S,2R)-(+)-2-hydroxy-3-cyclohexylisopropylamine linker; dAc‑VIN = 4-des-acetylvinblastine; Chg = N[C@H](C(=O)O)C1CCCCC1; Abu = CC[C@H](N)C(=O)O; VIN = not defined here; GABA = NCCCC(=O)O

Assays:
[1] = target: T1, enzymatically active free PSA (Homo sapiens, UniProt P07288); assay: Recognition/cleavage of oligopeptide-vinca drug conjugates by free PSA (HPLC); assay type: biochemical; settings: pH 7.4; for Time to 50% Substrate Cleavage by York PSA: conjugate:PSA molar ratio 100 to 1, acetate salt unless otherwise indicated, n > 1 value is an average
T1 construct: 50% cleavage of the noted oligopeptide-cytotoxic agent conjugates with enzymatically active free PSA; purchased York
T1 sequence (P07288 25-261): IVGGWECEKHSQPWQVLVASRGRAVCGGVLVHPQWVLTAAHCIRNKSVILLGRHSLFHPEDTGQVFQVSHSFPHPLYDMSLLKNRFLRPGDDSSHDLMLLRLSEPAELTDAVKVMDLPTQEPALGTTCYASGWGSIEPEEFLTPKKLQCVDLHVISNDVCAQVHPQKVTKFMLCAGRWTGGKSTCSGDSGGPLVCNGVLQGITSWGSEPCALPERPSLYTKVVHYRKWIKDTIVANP
Experimental: The conjugates prepared as described in Example 3 were individually dissolved in PSA digestion buffer (50 mM tris(hydroxymethyl)-aminomethane pH7.4, 140 mM NaCl) and the solution added to PSA at a molar ration of 100 to 1. Alternatively, the PSA digestion buffer utilized is 50 mM tris(hydroxymethyl)-aminomethane pH7.4, 140 mM NaCl. The reaction is quenched after various reaction times by the addition of trifluoroacetic acid (TFA) to a final 1% (volume/volume). Alternatively the reaction is quenched with 10 mM ZnCl2. The quenched reaction was analyzed by HPLC on a reversed-phase C18 column using an aqueous 0.1% TFA/acetonitrile gradient. […] Unless otherwise indicated, the acetate salt of the conjugate was tested.

[2] = Lability in mouse serum (remark in Table 5); assay type: in vitro ADME; settings: remark in the Table 5 cell
[3] = test system: LNCap prostate tumor cells; assay: In vitro cytotoxicity, Alamar Blue assay, LNCaP cell kill in 72 hrs; assay type: cell-based; settings: read-out: LNCaP Cell Kill in 72 HRS EC5O
Experimental: (§1) The cytotoxicities of the vinca alkaloid derivatives, prepared as described in Example 1, and the cleaveable oligopeptide-vinca drug conjugates, prepared as described in Examples 2 and 2A, against a line of cells which is known to be killed by unmodified vinca drug was assessed with an Alamar Blue assay. Specifically, cell cultures of LNCap prostate tumor cells, Colo320DM cells (also designated C320), T24 bladder carcinoma cells or T47D breast carcinoma cells in 96 well plates was diluted with medium containing various concentrations of a given conjugate (final plate well volume of 200 μl). The cells were incubated for 3 days at 37° C., 20 μl of Alamar Blue is added to the assay well. The cells were further incubated and the assay plates were read on a EL-310 ELISA reader at the dual wavelengths of 570 and 600 nm at 4 and 7 hours after addition of Alamar Blue. Relative percentage viability at the various concentration of conjugate tested was then calculated versus control (no cytotoxic agent or conjugate) cultures. Unless otherwise indicated, the TFA salt of the cytotoxic agent and the acetate salt of the conjugate were tested.

[4] = test system: Colo320DM cells (also designated C320); assay: In vitro cytotoxicity, Alamar Blue assay, Colo320DM cells; assay type: cell-based; settings: Table 5, value in parentheses, acetate salt unless otherwise indicated, read-out: Cell Kill in 72 HRS EC5O, Colo320DM
Experimental: as §1

[5] = test system: T24 bladder carcinoma cells; assay: In vitro cytotoxicity, Alamar Blue assay, T24 cells; assay type: cell-based; settings: read-out: Cell Kill in 72 HRS EC5O, T24
Experimental: as §1

[6] = Table 5, 3 days, acetate salt of conjugate unless otherwise indicated

Row | Compound | Time to 50% Substrate Cleavage by York PSA [1] | EC50 [3, 6] | EC50 [4] | other results
1 | CC[C@]1(O)CC2CN(CCc3c([nH]c4ccccc34)[C@@](C(=O)OC)(c3cc4c(cc3OC)N(C)C3C45CCN4CC=C[C@](CC)(C45)[C@@H](O)[C@]3(O)C(=O)N[C@H](COC(=O)[C@H](CO)NC(=O)[C@H](CCC(N)=O)NC(=O)[C@@H](NC(=O)[C@H](CO)NC(=O)[C@H](CO)NC(=O)[C@@H]3C[C@@H](O)CN3C(C)=O)C3CCCCC3)Cc3ccccc3)C2)C1 (stereo partly shown) | 25 min |  |  | Stability in mouse serum [2]: labile
2 | 4-des-Acetylvinblastine-23-(N-Acetyl-4-trans-L-Hyp-Ser-Ser-Chg-Gln-Ser-HCAP) Amide Acetate Salt | 15 min | 3.4 µM | 4.6 µM | 
3 | 4-des-Acetylvinblastine-23-(N-Acetyl-Ser-Chg-Gln-Ser-Ser-Pro-HCAP) Amide Acetate Salt (SXQSSX; non-natural residues; cyclised or stapled) [Ac-SChgQ-SSP-(HCAP)-VIN] | 8 min | 7.8 µM | 15.7 µM | 
4 | 4-des-Acetylvinblastine-23-(N-hydroxyacetyl-Abu-Ser-Ser-Chg-Gln-Ser-Pro-HCAP) amide (XSSXQSP; non-natural residues; cyclised or stapled) | 11 min | 2 µM | 12.6 µM | 
5 | CC[C@]1(O)C[C@@H]2CN(CCc3c([nH]c4ccccc34)[C@@](C(=O)OC)(c3cc4c(cc3OC)N(C)[C@H]3[C@@](O)(C(=O)OC)[C@H](OC(C)=O)[C@]5(CC)C=CCN6CC[C@]43[C@@H]65)C2)C1 [VINBLASTINE, vinblastine] |  |  |  | EC50 ([3]; Homo sapiens, 72 h, Table 3, 3 days, TFA salt of cytotoxic agent unless otherwise indicated): 0.5 µM; EC50 ([5]; Homo sapiens, T-24, 72 h, Table 3, value in parentheses): < 0.08 µM; EC50 ([5]; Table 5, value in parentheses): < 0.08 µM
6 | Ac-4-trans-L-Hyp-SSChgQ-SS-(HCAP)-(dAc)-VIN (XSSXQSS; non-natural residues; cyclised or stapled) | 17 min | 2 µM | 5 µM | 
7 | Ac-4-trans-L-HypSSChgQS-cyclohexylalaninol-(dAc)-VIN (XSSXQSX; non-natural residues; cyclised or stapled) | 10 min | 0.3 µM | 2.6 µM | 
8 | Ac-4-trans-L-HypSSChgQS-cyclopropylalaninol-(dAc)-VIN | 45 min | 1.5 µM | 7.5 µM | 
9 | Ac-4-trans-L-HypSSChgQSP(HCAP)-VIN (XSSXQSX; non-natural residues; cyclised or stapled) | 8 min | 5.5 µM | 15.6 µM | 
10 | Ac-AbuSChgQ-SP-(HCAP)-(dAc)-VIN | 17 (n = 2) Min | 4.1 µM | 15.7 µM | 
11 | Ac-AbuSSChgQ-S-(HCAP)-VIN (Ac-[Abu]SS[Chg]QS-{HCAP-VIN}; reading uncertain) |  | 6.1 µM | 7.8 µM | Substrate cleavage by York PSA at 1 HOUR ([1]; 1 hour, conjugate:PSA 100 to 1): 28%
12 | Ac-AbuSSChgQ-SP-(HCAP)-(dAc)-VIN (XSSXQSP; non-natural residues; cyclised or stapled) | 18 min | 2 µM | 15.7 µM | 
13 | Ac-SChgQ-SP-(HCAP)-(dAc)-VIN (Ac-S[Chg]QSP-{HCAP-dAc‑VIN}) | 13 min | 7.8 µM | 15.7 µM | 
14 | Ac-SChgQ-SS(4-trans-L-Hyp)-(HCAP)-dAc-VIN (XXQSSX; non-natural residues; cyclised or stapled) | 7 min | 5.9 µM | 10.4 µM | 
15 | Ac-SChgQS-Abu-(HCAP)-VIN (Ac-S[Chg]QS[Abu]-{HCAP-VIN}; reading uncertain) | 60 min | 0.8 µM | 2 µM | 
16 | Ac-SChgQSS(HCAP)-dAc-VIN (Ac-S[Chg]QSS-{HCAP-dAc‑VIN}) | 12 min | 1.4 µM | 1.4 µM | 
17 | Ac-SChgQSS(PIP)-(HCAP)-dAc-VIN (XXQSSX; non-natural residues; cyclised or stapled) | 22 min |  |  | 
18 | Ac-SChgQSS-Sar-(HCAP)-dAc-VIN (XXQSSX; not fully specified; N-methyl; non-natural residues; cyclised or stapled) | 13 min |  |  | 
19 | Ac-SChgQSS-gammaAbu-(HCAP)-dAc-VIN (Ac-S[Chg]QSS[GABA]-{HCAP-dAc‑VIN}; not fully specified) | 12 min | 2.3 µM | 4.3 µM | 
20 | Ac-SSChgQ-SP-(HCAP)-(dAc)-VIN (Ac-SS[Chg]QSP-{HCAP-dAc‑VIN}; not fully specified) | 30 min | 10.2 µM | 29.5 µM | 
21 | Ac-SSChgQ-SSP-(HCAP)-dAc-VIN (XSXQSSX; not fully specified; non-natural residues; cyclised or stapled) | 8 min | 2.6 µM | 6.3 µM | 
